Data published in paper PMC3692405, “Disease-associated mutations in CNGB3 promote cytotoxicity in photoreceptor-derived cells” (Molecular Vision, 2013).
Numbering of substitutions follows the chain as printed. Where two headings read alike, the source gives them in different places.

How the values were obtained:
Type in all cases: biochemical
Settings in all cases: in the presence of 0.1 µM CPT-cGMP
[1] = target: T1, WT human CNGA3 plus WT CNGB3 heteromeric channels (Homo sapiens, UniProt Q16281+Q9NQW8); test: Inside-out patch-clamp recording of channels expressed in Xenopus oocytes (WT heteromeric)
T1 construct: expressed in transfected cells; host or cells: Xenopus laevis oocytes injected with cRNA transcribed from pGEMHE constructs
T1 sequence (Q16281 1-694): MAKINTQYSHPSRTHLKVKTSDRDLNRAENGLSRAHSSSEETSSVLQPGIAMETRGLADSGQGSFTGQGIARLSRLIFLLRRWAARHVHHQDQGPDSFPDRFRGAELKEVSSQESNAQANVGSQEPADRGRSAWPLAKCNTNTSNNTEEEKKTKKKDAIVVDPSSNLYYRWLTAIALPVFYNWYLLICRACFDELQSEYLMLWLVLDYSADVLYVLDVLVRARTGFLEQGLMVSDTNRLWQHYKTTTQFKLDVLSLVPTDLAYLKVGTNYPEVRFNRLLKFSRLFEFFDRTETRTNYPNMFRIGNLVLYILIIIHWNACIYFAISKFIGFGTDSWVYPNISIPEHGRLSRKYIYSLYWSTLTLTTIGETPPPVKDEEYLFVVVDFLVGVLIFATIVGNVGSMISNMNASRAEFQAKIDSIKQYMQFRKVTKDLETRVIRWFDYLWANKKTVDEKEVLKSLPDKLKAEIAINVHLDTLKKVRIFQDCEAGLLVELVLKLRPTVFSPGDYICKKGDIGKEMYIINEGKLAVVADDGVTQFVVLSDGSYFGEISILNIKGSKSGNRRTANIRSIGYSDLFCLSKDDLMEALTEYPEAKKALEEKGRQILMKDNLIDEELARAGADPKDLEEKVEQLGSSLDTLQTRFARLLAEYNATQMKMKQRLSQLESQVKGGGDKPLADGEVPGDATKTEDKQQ
T1 sequence (Q9NQW8 1-809): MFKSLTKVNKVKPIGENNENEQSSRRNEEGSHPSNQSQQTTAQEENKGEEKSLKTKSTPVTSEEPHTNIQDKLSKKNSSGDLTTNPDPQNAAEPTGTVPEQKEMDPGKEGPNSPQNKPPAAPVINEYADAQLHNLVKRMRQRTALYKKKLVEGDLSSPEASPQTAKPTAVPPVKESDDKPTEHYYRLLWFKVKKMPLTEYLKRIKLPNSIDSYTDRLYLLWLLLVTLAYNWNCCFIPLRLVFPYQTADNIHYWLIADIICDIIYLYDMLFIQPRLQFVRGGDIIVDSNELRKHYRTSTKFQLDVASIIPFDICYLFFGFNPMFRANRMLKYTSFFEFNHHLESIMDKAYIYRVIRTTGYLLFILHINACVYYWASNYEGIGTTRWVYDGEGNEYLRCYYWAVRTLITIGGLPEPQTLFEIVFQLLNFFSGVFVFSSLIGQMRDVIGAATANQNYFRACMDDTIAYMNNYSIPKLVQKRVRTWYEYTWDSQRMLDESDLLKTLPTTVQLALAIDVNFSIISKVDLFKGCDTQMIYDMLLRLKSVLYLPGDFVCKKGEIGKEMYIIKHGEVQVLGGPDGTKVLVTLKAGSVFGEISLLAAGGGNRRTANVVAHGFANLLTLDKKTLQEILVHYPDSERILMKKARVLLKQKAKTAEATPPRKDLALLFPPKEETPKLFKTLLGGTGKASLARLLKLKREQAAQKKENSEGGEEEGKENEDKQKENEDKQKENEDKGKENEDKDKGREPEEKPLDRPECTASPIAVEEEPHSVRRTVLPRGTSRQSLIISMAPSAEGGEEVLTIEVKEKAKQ
Description: (§1) For heterologous expression in Xenopus laevis oocytes, identical amounts of cDNA were linearized using SphI or NheI, and capped cRNA was transcribed in vitro using the T-7 RNA polymerase mMESSAGE mMACHINE® kit (Ambion, Austin, TX). cRNA concentrations and relative amounts were determined by denaturing gel electrophoresis and KODAK 1D image analysis software (Rochester, NY), as well as by spectrophotometry. […] Oocytes were incubated in ND96 (96 mM NaCl, 2 mM KCl, 1.8 mM CaCl2, 1 mM MgCl2, and 5 mM HEPES, pH 7.6, supplemented with 10 μg/ml gentamycin).
(§2) Two to seven days after microinjection of cRNA, patch-clamp experiments were performed using the inside-out configuration with an Axopatch 200B amplifier (Axon Instruments, Foster City, CA). Recordings were made at 20–23 °C. Data were acquired using Pulse software (HEKA Elektronik, Lambrecht, Germany). Current traces were elicited by voltage steps from a holding potential of 0 mV to +80 mV, then to −80 mV and back to 0 mV. Initial pipette resistances were 0.4–0.8 megaohms. Intracellular and extracellular solutions contained 130 mM NaCl, 0.2 mM EDTA, and 3 mM HEPES (pH 7.2). Intracellular solutions were exchanged using an RSC-160 rapid solution changer (Molecular Kinetics, Indianapolis, IN). Currents in the absence of cyclic nucleotides were subtracted. For channel activation by CPT-cGMP or CPT-cAMP, dose–response data were fitted with the Hill equation, I/Imax=([cNMP]^h/(K1/2^h + [cNMP]^h)), where I is the current amplitude at +80 mV, Imax is the maximum current elicited by saturating concentration of ligand, [cNMP] is the ligand concentration, K1/2 is the apparent ligand affinity, and h is the Hill slope. We measured sensitivity to block by L-cis-diltiazem (RBI, Natick, MA) applied to the intracellular face of the patch in the presence of 0.1 μM CPT-cGMP. Data were fit with a modified Hill equation in the form I blocker/I=(K1/2^h/(K1/2^h + [blocker]^h)). Data were analyzed using Igor (Wavemetrics, Lake Oswego, OR), SigmaPlot, and SigmaStat (Systat Software Inc., San Jose, CA). All values are reported as the mean±standard error of the mean of n experiments unless otherwise indicated. Statistical significance was determined using a Student t test or Mann–Whitney rank sum test, and a p value of <0.05 was considered significant.

[2] = target: T2, CNGA3 plus CNGB3 T383fsX channels (Homo sapiens, UniProt Q16281); test: Inside-out patch-clamp recording of channels expressed in Xenopus oocytes (CNGB3 T383fsX)
T2 construct: expressed in transfected cells; host or cells: Xenopus laevis oocytes injected with cRNA transcribed from pGEMHE constructs
T2 sequence (Q16281 1-694): T1 sequence (Q16281 1-694)
Description: as §1, §2

[3] = target: T3, CNGA3 plus CNGB3-F525N channels (Homo sapiens, UniProt Q16281+Q9NQW8, F525N); test: Inside-out patch-clamp recording of channels expressed in Xenopus oocytes (CNGB3 F525N)
T3 construct: expressed in transfected cells; host or cells: Xenopus laevis oocytes injected with cRNA transcribed from pGEMHE constructs
T3 sequence (Q16281 1-694): T1 sequence (Q16281 1-694)
T3 sequence (Q9NQW8 1-809 F525N): T1 sequence (Q9NQW8 1-809) with F525N
Description: as §1, §2

[4] = Figure 6B, read-out: K1/2,L-cis-dilt., dose-response fit of Figure 6B
[5] = intracellular face, mean±SEM, n=5, read-out: apparent affinity for L-cis-diltiazem K1/2, L-cis-dilt. (channel block)

COc1ccc([C@@H]2Sc3ccccc3N(CCN(C)C)C(=O)[C@@H]2OC(C)=O)cc1 [L-cis-diltiazem]
Hill slope h, block by L-cis-diltiazem, Figure 6B ([1]; Figure 6B): 0.5
IC50 [1, 4]: 4.1 µM
IC50 [1, 5]: 4.06 ± 1 µM
Hill slope h, block by L-cis-diltiazem, Figure 6B ([2]; Figure 6B): 0.3
IC50 [2, 4]: 135 µM
IC50 ([2]; intracellular face, mean±SEM, n=4, read-out: apparent affinity for L-cis-diltiazem K1/2, L-cis-dilt. (channel block)): 77.9 ± 23.1 µM
Hill slope h, block by L-cis-diltiazem, Figure 6B ([3]; Figure 6B): 0.7
IC50 [3, 4]: 4.2 µM
IC50 [3, 5]: 3.03 ± 0.75 µM
